Measurements from patent publication US6255100A, “Cyclosporin fermentation process” (Novartis AG, priority 1990, dated 2001).
Non-standard residues stand in square brackets, D forms with d. Residues, ends and D or L forms follow the SMILES beside them. MeBmt = C/C=C/C[C@@H](C)[C@@H](O)[C@H](NC)C(=O)O; NMeL = CN[C@@H](CC(C)C)C(=O)O; NMeV = CN[C@H](C(=O)O)C(C)C; dNMeA = CN[C@H](C)C(=O)O

Each compound was assayed on MT4 cells (assay: Cytotoxicity in MT4-cells (MTT)). Conditions: not given.
Procedure: To evaluate the anti-HIV potential in additional cell lines and particularly in a monocytic cell line (U937), cellular toxicity of the test compound to these cell lines is first assessed. Jurkat and U937 cell suspensions are adjusted to 1×10^5 cells/ml and incubated in the presence of various concentrations of test compound. After 48 hours the amounts of cells per ml are compared by staining with MTT. Cytoxicity in MT4 cells may be measured in the same way.
The significance of these numbers and the appropriate methods are discussed supra.
In the case of `CCCC[C@@H](C)[C@@H](O)[C@H]1C(=O)N[C@@H](CC)C(=O)N(C)CC(=O)N(C)[C@@H](CC(C)(C)O)C(=O)N[C@@H](C(C)C)C(=O)N(C)[C@@H](CC(C)C)C(=O)N[C@@H](C)C(=O)N[C@H](C)C(=O)N(C)[C@@H](CC(C)C)C(=O)N(C)[C@@H](CC(C)C)C(=O)N(C)[C@@H](C(C)C)C(=O)N1C` [Compound a), [dihydro-MeBmt]^1-[γ-hydroxy-MeLeu]^4 -Ciclosporin], the Cytotoxicity is reported as 16.3 µg/mL. For `C/C=C/C[C@@H](C)[C@@H](O)[C@H]1C(=O)N[C@@H](CC)C(=O)N(C)CC(=O)N(C)[C@@H](CC(C)(C)O)C(=O)N[C@@H](C(C)C)C(=O)N(C)[C@@H](CC(C)C)C(=O)N[C@@H](C)C(=O)N[C@H](C)C(=O)N(C)[C@@H](CC(C)C)C(=O)N(C)[C@@H](CC(C)C)C(=O)N(C)[C@@H](C(C)C)C(=O)N1C` [Compound e), [γ-hydroxy-MeLeu]^4 -Ciclosporin], the Cytotoxicity was 15.5 µg/mL. `C/C=C/C[C@@H](C)[C@@H](O)[C@H]1C(=O)N[C@@H](CCC)C(=O)N(C)CC(=O)N(C)[C@@H](CC(C)(C)O)C(=O)N[C@@H](C(C)C)C(=O)N(C)[C@@H](CC(C)C)C(=O)N[C@@H](C)C(=O)N[C@H](C)C(=O)N(C)[C@@H](CC(C)C)C(=O)N(C)[C@@H](CC(C)C)C(=O)N(C)[C@@H](C(C)C)C(=O)N1C` [Compound f), [Nva]^2-[γ-hydroxy-MeLeu]^4 -Ciclosporin] gave a Cytotoxicity of 14.0 µg/mL. Compound `C/C=C/C[C@@H](C)[C@@H](O)[C@H]1C(=O)N[C@@H](CC)C(=O)N(C)CC(=O)N(C)[C@@H](CC(C)C)C(=O)N(C)[C@@H](C(C)C)C(=O)N(C)[C@@H](CC(C)C)C(=O)N[C@@H](C)C(=O)N[C@H](C)C(=O)N(C)[C@@H](CC(C)C)C(=O)N(C)[C@@H](CC(C)C)C(=O)N(C)[C@@H](C(C)C)C(=O)N1C` [Compound h), [MeVal]^5 -Ciclosporin] has a Cytotoxicity of 4.4 µg/mL. Compound `C/C=C/C[C@@H](C)[C@@H](O)[C@H]1C(=O)N[C@@H]([C@@H](C)OC)C(=O)N(C)[C@H](C)C(=O)N(C)[C@@H](CC(C)C)C(=O)N(C)[C@@H](C(C)C)C(=O)N(C)[C@@H](CC(C)C)C(=O)N[C@@H](C)C(=O)N[C@H](C)C(=O)N(C)[C@@H](CC(C)C)C(=O)N(C)[C@@H](CC(C)C)C(=O)N(C)[C@@H](C(C)C)C(=O)N1C` [Compound i), [MeOThr]^2-[(D)MeAla]^3-[MeVal]^5 -Ciclosporin] (cyclo(A[dA][NMeL][NMeL][NMeV][MeBmt]T(Me)[dNMeA][NMeL][NMeV][NMeL])) has a Cytotoxicity greater than 10 µg/mL. In the case of `CC[C@@H]1NC(=O)[C@H]([C@H](O)[C@H](C)C/C=C/CO)N(C)C(=O)[C@H](C(C)C)N(C)C(=O)[C@H](CC(C)C)N(C)C(=O)[C@H](CC(C)C)N(C)C(=O)[C@@H](C)NC(=O)[C@H](C)NC(=O)[C@H](CC(C)C)N(C)C(=O)[C@H](C(C)C)NC(=O)[C@H](CC(C)C)N(C)C(=O)CN(C)C1=O` [Compound j), [8'-hydroxy-MeBmt]^1 -Ciclosporin], the Cytotoxicity is reported as 10.6 µg/mL. `C/C=C/C[C@@H](C)[C@@H](O)[C@H]1C(=O)N[C@@H](CC)C(=O)N(C)CC(=O)N(C)[C@@H](CC(C)C)C(=O)N[C@@H](C(C)C)C(=O)N(C)[C@@H](C)C(=O)N[C@@H](C)C(=O)N[C@H](C)C(=O)N(C)[C@@H](CC(C)C)C(=O)N(C)[C@@H](CC(C)C)C(=O)N(C)[C@@H](C(C)C)C(=O)N1C` [Compound k), [MeAla]^6 -Ciclosporin] was tested, and the Cytotoxicity was 5.2 µg/mL. `C/C=C/C[C@@H](C)[C@@H](O)[C@H]1C(=O)N[C@@H](CC)C(=O)N(C)CC(=O)N(C)[C@@H](CC(C)C)C(=O)N[C@@H](C(C)C)C(=O)N(C)[C@@H](CC(C)C)C(=O)N[C@@H](C)C(=O)N[C@H](C)C(=O)N(C)[C@@H](CC(C)(C)O)C(=O)N(C)[C@@H](CC(C)C)C(=O)N(C)[C@@H](C(C)C)C(=O)N1C` [l), [γ-hydroxy-MeLeu]^9 -Ciclosporin] was tested, and the Cytotoxicity was greater than 10 µg/mL.

Same assay, conditions: MT4-cells, MTT staining
`C/C=C/C[C@@H](C)[C@@H](O)[C@H]1C(=O)N[C@@H](CC)C(=O)N(C)CC(=O)N(C)[C@@H](C(C)C)C(=O)N[C@@H](C(C)C)C(=O)N(C)[C@@H](CC(C)C)C(=O)N[C@@H](C)C(=O)N[C@H](C)C(=O)N(C)[C@@H](CC(C)C)C(=O)N(C)[C@@H](CC(C)C)C(=O)N(C)[C@@H](C(C)C)C(=O)N1C` [Compound b), [MeVal]^4 -Ciclosporin] was tested, and the Cytotoxicity was 5.4 µg/mL. `C/C=C/C[C@@H](C)[C@@H](O)[C@H]1C(=O)N[C@@H](CC)C(=O)N(C)CC(=O)N(C)[C@@H]([C@@H](C)CC)C(=O)N[C@@H](C(C)C)C(=O)N(C)[C@@H](CC(C)C)C(=O)N[C@@H](C)C(=O)N[C@H](C)C(=O)N(C)[C@@H](CC(C)C)C(=O)N(C)[C@@H](CC(C)C)C(=O)N(C)[C@@H](C(C)C)C(=O)N1C` [Compound c), [MeIle]^4 -Ciclosporin] showed a Cytotoxicity of 4.5 µg/mL.
